Measurements as given in patent US11401234B2, “Deuterated compounds and uses thereof” (priority 2012, dated 2022).
“And” between values parts separate entries of the source, which are not always exact repeats. Equal entries are not always repeated.

Key:
22Rv1 prostate tumours = test: Tumour oxygenation (pO2) by Oxylite oxygen electrode probe in xenografts; type: in vivo, SCID mice
Description: • 22Rv1 cells grow as a solid tumour on the backs of SCID mice. • Tumour oxygenation was measured over 28 days in vehicle and bicalutamide (2 mg/kg/day) treated mice (see Table 3 above). • Bicalutamide caused a drop in tumour oxygenation (as shown in FIG. 10); from ˜15.3 mmHg (2% oxygen) to 2.0 mmHg (0.3% oxygen) at day 7 and to 0.5 mmHg (0.1% oxygen) at day 14. […] However, during the subsequent week (probably related to tumour size) the median oxygen levels […] to about 3 mmHg (0.4% oxygen) and do indicate recovery.

22Rv1 xenograft tumours = test: 22Rv1 xenograft tumour growth (calliper tumour volumes); type: in vivo, SCID mice; settings: 2 mg/kg/day oral gavage
Description: (ii) Effect of Bicalutamide on Blood Vessels in 22Rv1 Tumour Xenografts • Dorsal skin folds were secured using window chambers onto the backs of male SCID mice (>8 weeks). […] Tumour volume was normalised to day 6 (ie pre-prodrug addition).

LNCaP xenograft tumours = test: LNCaP xenograft tumour growth (calliper tumour volumes); type: in vivo, SCID mice
[1] = system: Human T cell leukaemia cells (Jurkat); test: Inhibition of cell proliferation in air or 1% oxygen (Coulter Counter relative cell number); type: cell-based; settings: 4 days, range of concentrations

Structure (SMILES): CC(O)(CS(=O)(=O)c1ccc(F)cc1)C(=O)Nc1ccc(C#N)c(C(F)(F)F)c1 (stereo not drawn) [Bicalutamide]
- Mean pO2 ± SD (22Rv1 prostate tumours; day 0 (before commencement of treatment), 2 mg/kg/day oral gavage group, 2 mg/kg/day): 15.277 ± 11.254 mmHg
- tumour oxygenation (22Rv1 prostate tumours; day 0, 2 mg/kg/day group): 2 % oxygen
- tumour oxygenation (22Rv1 prostate tumours; day 7, 2 mg/kg/day): 0.3 % oxygen
- Mean pO2 ± SD (22Rv1 prostate tumours; day 7 of treatment, 2 mg/kg/day oral gavage, 2 mg/kg/day): 2.0 mmHg and 1.996 ± 1.989 mmHg
- tumour oxygenation (22Rv1 prostate tumours; day 14, 2 mg/kg/day): 0.1 % oxygen
- Mean pO2 ± SD (22Rv1 prostate tumours; day 14 of treatment, 2 mg/kg/day oral gavage, 2 mg/kg/day): 0.5 mmHg and 0.486 ± 0.107 mmHg
- Mean pO2 ± SD (22Rv1 prostate tumours; day 21 of treatment, 2 mg/kg/day oral gavage): 1.291 ± 0.291 mmHg
- Mean pO2 ± SD (22Rv1 prostate tumours; day 28 of treatment, 2 mg/kg/day oral gavage): 11.905 ± 0.861 mmHg
- time to reach four times the volume at the start of treatment (22Rv1 xenograft tumours): 18.5 ± 0.8 days
- Growth Delay (22Rv1 xenograft tumours; versus vehicle, time to four times start volume): 4.5 days
- Time to 2x start volume (LNCaP xenograft tumours; bicalutamide 2 mg/kg/day oral 28 days, OCT1002 50 mg/kg i.p. single dose day 7): 16.2 ± 1.94 days
- Growth Delay (LNCaP xenograft tumours; versus vehicle, time to reach twice the treatment size): 5.1 days and 5 ± 3.82 days

Structure (SMILES): [2H]C([2H])([2H])N(CCNc1ccc(NCCN(C([2H])([2H])[2H])C([2H])([2H])[2H])c2c1C(=O)c1c(O)ccc(O)c1C2=O)C([2H])([2H])[2H] [OCT1001, 1,4-bis-{[2-(deuterated-d6-dimethylamino)ethyl]amino)-5,8-dihydroxy-anthracene-9,10-dione]
- loss of intracellular fluorescence attributable to metabolite, compared with AQ4 (A549 cells; after 24 h post exposure recovery in drug free medium, normal oxygenation): reduced loss
- cellular accumulation of intracellular fluorescence attributable to metabolite, compared with AQ4 (A549 cells; after 4 day prodrug exposure under 1% oxygen): reduced cellular accumulation

Structure (SMILES): COc1cc([C@@H]2c3cc4c(cc3[C@@H](O[C@@H]3O[C@@H]5CO[C@@H](C)O[C@H]5[C@H](O)[C@H]3O)[C@H]3COC(=O)[C@H]23)OCO4)cc(OC)c1O [VP-16]
- inhibition of cell proliferation (cytostatic activity, relative cell number) [1]: hypoxia does not modify the cytostatic action
